The results in this text go back to publication PMC4877957 (BMC Microbiology, 2016).

Structures are written as SMILES.

One test deals with T1, RoxAXsp (Xanthomonas sp. 35Y, UniProt Q7X0P3).
T1 construct: gene roxA; purified as described previously; c-type dihaem
The experiment in a line: HPLC of polyisoprene cleavage products. The format is biochemical. The note with it: poly(cis-1,4-isoprene) latex, oxygen; 23 °C.

Another test has as its target T2, LcpRr (Rhodococcus rhodochrous, UniProt A0A165QBG6).
T2 sequence (A0A165QBG6 31-408): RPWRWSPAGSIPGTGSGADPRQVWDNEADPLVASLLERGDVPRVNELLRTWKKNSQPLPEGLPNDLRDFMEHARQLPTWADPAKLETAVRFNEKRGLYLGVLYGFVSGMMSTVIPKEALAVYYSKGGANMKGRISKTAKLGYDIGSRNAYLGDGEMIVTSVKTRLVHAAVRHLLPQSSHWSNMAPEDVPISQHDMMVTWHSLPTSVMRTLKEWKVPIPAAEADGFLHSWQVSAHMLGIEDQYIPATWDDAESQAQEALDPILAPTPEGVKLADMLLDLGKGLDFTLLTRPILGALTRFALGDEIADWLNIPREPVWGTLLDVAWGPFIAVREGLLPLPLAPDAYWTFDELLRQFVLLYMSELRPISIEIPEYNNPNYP
The test is described as follows: HPLC product assay (C35 peak), polyisoprene latex. The note with it: read-out: % inhibition at 1 mM.

T1 sequence (Q7X0P3 entry or part of it): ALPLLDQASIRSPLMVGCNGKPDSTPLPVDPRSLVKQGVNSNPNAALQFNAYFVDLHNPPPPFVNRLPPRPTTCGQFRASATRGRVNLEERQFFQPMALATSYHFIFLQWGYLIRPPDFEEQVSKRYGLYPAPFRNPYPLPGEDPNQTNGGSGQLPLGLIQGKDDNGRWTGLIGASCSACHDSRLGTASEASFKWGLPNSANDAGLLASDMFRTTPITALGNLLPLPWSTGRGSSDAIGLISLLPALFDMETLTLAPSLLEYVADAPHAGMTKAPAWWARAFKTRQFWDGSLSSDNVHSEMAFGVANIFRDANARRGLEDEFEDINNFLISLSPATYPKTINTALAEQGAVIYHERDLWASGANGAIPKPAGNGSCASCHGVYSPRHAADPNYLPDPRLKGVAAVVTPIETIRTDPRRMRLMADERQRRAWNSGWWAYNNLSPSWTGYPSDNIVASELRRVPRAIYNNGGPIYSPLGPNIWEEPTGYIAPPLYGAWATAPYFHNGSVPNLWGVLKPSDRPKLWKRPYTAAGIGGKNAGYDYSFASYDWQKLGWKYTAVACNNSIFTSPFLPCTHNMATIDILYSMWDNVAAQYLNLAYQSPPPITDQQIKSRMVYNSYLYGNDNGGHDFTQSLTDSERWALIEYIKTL

Regarding `CC(=O)CCC=C(C)CCC=C(C)CCC=O` [ODTD, 12-oxo-4,8-dimethyl-trideca-4,8-diene-1-al], at RoxAXsp, the “HPLC of polyisoprene cleavage products” value is “ODTD was the main cleavage product of RoxAXsp”. The inhibition is the change of the read-out against control, counted positive when it falls. In the case of `CCN(CC)C(=S)S` [diethyl dithiocarbamate], at LcpRr, the inhibition at 1000 µM came to 82%.
